Experimental data from PubChem BioAssay (NCI).
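Results reflect a 48-hour exposure of cells in 96-well plates to compound at five concentrations. Here, GI50 denotes the concentration required for 50% inhibition of growth. TGI: total growth inhibition.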

How the values were obtained:
Experiment in all cases: growth of human tumour cells (NCI), 48 h
[1] = system: TK-10 renal
[2] = system: RPMI-8226 leukemia
[3] = system: MOLT-4 leukemia
[4] = system: NCI-H460 lung
[5] = system: NCI/ADR-RES ovarian
[6] = system: ACHN renal
[7] = system: M14 melanoma
[8] = system: SW-620 colon
[9] = system: OVCAR-4 ovarian
[10] = system: HS 578T breast
[11] = system: UACC-257 melanoma
[12] = system: SK-OV-3 ovarian
[13] = system: KM12 colon
[14] = system: MDA-MB-231 breast
[15] = system: SK-MEL-5 melanoma
[16] = system: CCRF-CEM leukemia
[17] = system: SR leukemia
[18] = system: MALME-3M melanoma
[19] = system: U251 CNS
[20] = system: A498 renal
[21] = system: HCT-15 colon
[22] = system: OVCAR-8 ovarian
[23] = system: SNB-19 CNS
[24] = system: NCI-H23 lung
[25] = system: MCF7 breast
[26] = system: IGROV1 ovarian
[27] = system: MDA-MB-435
[28] = system: HOP-62 NSCLC
[29] = system: EKVX NSCLC
[30] = system: HT29 colon
[31] = system: SN12C renal
[32] = system: SF-295 CNS
[33] = system: CAKI-1 renal
[34] = system: COLO 205 colon
[35] = system: RXF 393 renal
[36] = system: HOP-92 NSCLC
[37] = system: HCC-2998 colon
[38] = system: PC-3 prostate
[39] = system: NCI-H522 lung
[40] = system: BT-549 breast
[41] = system: UO-31 renal
[42] = system: SF-268 CNS
[43] = system: LOX IMVI melanoma
[44] = system: A549 NSCLC
[45] = system: K-562 leukemia
[46] = system: NCI-H226 lung
[47] = system: SF-539 CNS
[48] = system: UACC-62 melanoma
[49] = system: SK-MEL-28 melanoma
[50] = system: 786-0 renal
[51] = system: OVCAR-3 ovarian
[52] = system: SNB-75 CNS
[53] = system: SK-MEL-2 melanoma
[54] = system: OVCAR-5 ovarian
[55] = system: HCT-116 colon
[56] = system: DU-145 prostate
[57] = system: HL-60(TB) leukemia
[58] = system: MDA-MB-468 breast
[59] = system: T-47D breast

Cn1cc(-c2nc(N)nnc2-c2c[nH]c3ccc(Br)cc23)c2cc(Br)cnc21
GI50 [1]: 12.6 µM
TGI [1]: 50.4 µM
GI50 [2]: 0.422 µM
TGI [2]: > 100 µM
GI50 [3]: 0.341 µM
TGI [3]: 20.3 µM
GI50 [4]: 0.349 µM
TGI [4]: 11.2 µM
GI50 [5]: 0.432 µM
TGI [5]: 7.08 µM
GI50 [6]: 0.748 µM
TGI [6]: 13.2 µM
GI50 [7]: 0.148 µM
TGI [7]: 13.9 µM
GI50 [8]: 0.217 µM
TGI [8]: 18.4 µM
GI50 [9]: 0.978 µM
TGI [9]: 20.2 µM
GI50 [10]: 0.285 µM
TGI [10]: 38 µM
GI50 [11]: 11 µM
TGI [11]: 23.5 µM
GI50 [12]: 0.432 µM
TGI [12]: 20.2 µM
GI50 [13]: 0.146 µM
TGI [13]: 11.3 µM
GI50 [14]: 0.442 µM
TGI [14]: 11.7 µM
GI50 [15]: 0.114 µM
TGI [15]: 3.91 µM
GI50 [16]: 0.279 µM
TGI [16]: > 100 µM
GI50 [17]: 0.043 µM
TGI [17]: > 52.9 µM
GI50 [18]: 0.135 µM
TGI [18]: 20.3 µM
GI50 [19]: 0.349 µM
TGI [19]: 13.3 µM
GI50 [20]: 0.662 µM
TGI [20]: 5.32 µM
GI50 [21]: 0.177 µM
TGI [21]: 11 µM
GI50 [22]: 0.45 µM
TGI [22]: 9.02 µM
GI50 [23]: 0.454 µM
TGI [23]: 16.5 µM
GI50 [24]: 0.373 µM
TGI [24]: 14.9 µM
GI50 [25]: 0.0583 µM
TGI [25]: 15.9 µM
GI50 [26]: 0.398 µM
TGI [26]: 18.8 µM
GI50 [27]: 0.032 µM
TGI [27]: 0.12 µM
GI50 [28]: 0.42 µM
TGI [28]: 19.5 µM
GI50 [29]: 0.881 µM
TGI [29]: 23.7 µM
GI50 [30]: 0.269 µM
TGI [30]: 1.04 µM
GI50 [31]: 0.423 µM
TGI [31]: 14.5 µM
GI50 [32]: 0.075 µM
TGI [32]: 12.8 µM
GI50 [33]: 0.184 µM
TGI [33]: 18.2 µM
GI50 [34]: 0.248 µM
TGI [34]: 0.762 µM
GI50 [35]: 0.167 µM
TGI [35]: 3.84 µM
GI50 [36]: 1.27 µM
TGI [36]: 11.4 µM
GI50 [37]: 0.379 µM
TGI [37]: 11.4 µM
GI50 [38]: 0.13 µM
TGI [38]: 30.1 µM
GI50 [39]: 0.0212 µM
TGI [39]: 0.0619 µM
GI50 [40]: 0.227 µM
TGI [40]: 7.72 µM
GI50 [41]: 0.349 µM
TGI [41]: 16.5 µM
GI50 [42]: 1.62 µM
TGI [42]: 22 µM
GI50 [43]: 0.299 µM
TGI [43]: 15.8 µM
GI50 [44]: 0.455 µM
TGI [44]: 29.1 µM
GI50 [45]: 0.049 µM
TGI [45]: > 35.6 µM
GI50 [46]: 0.582 µM
TGI [46]: 8.66 µM
GI50 [47]: 0.154 µM
TGI [47]: 0.532 µM
GI50 [48]: 0.0473 µM
TGI [48]: 16.4 µM
GI50 [49]: 0.324 µM
TGI [49]: 17.8 µM
GI50 [50]: 0.422 µM
TGI [50]: 16.1 µM
GI50 [51]: 0.0649 µM
TGI [51]: 2.51 µM
GI50 [52]: 0.192 µM
TGI [52]: 2.91 µM
GI50 [53]: 0.194 µM
TGI [53]: 14.8 µM
GI50 [54]: 0.422 µM
TGI [54]: 15.6 µM
GI50 [55]: 0.141 µM
TGI [55]: 3.36 µM
GI50 [56]: 0.352 µM
TGI [56]: 12.8 µM
GI50 [57]: 0.144 µM
TGI [57]: 0.824 µM
GI50 [58]: 0.069 µM
TGI [58]: 1.03 µM

Oc1ccc(Cl)c(Nc2nc(SCCN3CCOCC3)nc3c2cnn3CC(Cl)c2ccc(Br)cc2)c1 (configuration not stated)
GI50 [1]: 18.2 µM
TGI [1]: 54.7 µM
GI50 [2]: 3.54 µM
TGI [2]: > 100 µM
GI50 [3]: 3.53 µM
TGI [3]: > 100 µM
GI50 [4]: 4.12 µM
TGI [4]: > 100 µM
GI50 [5]: 3.37 µM
TGI [5]: > 100 µM
GI50 [6]: 3.62 µM
TGI [6]: > 100 µM
GI50 [7]: 4.49 µM
TGI [7]: > 100 µM
GI50 [8]: 11.3 µM
TGI [8]: > 100 µM
GI50 [9]: 4.91 µM
TGI [9]: > 100 µM
GI50 [11]: 13.7 µM
TGI [11]: > 100 µM
GI50 [12]: 17.1 µM
TGI [12]: > 100 µM
GI50 [13]: 5.83 µM
TGI [13]: > 100 µM
GI50 [14]: 3.77 µM
TGI [14]: 17.3 µM
GI50 [15]: 3.95 µM
TGI [15]: 15.2 µM
GI50 [16]: 3.17 µM
TGI [16]: > 100 µM
GI50 [17]: 12.8 µM
TGI [17]: > 100 µM
GI50 [18]: 3.7 µM
TGI [18]: 19.9 µM
GI50 [19]: 5.75 µM
TGI [19]: > 100 µM
GI50 [20]: 12.1 µM
TGI [20]: > 100 µM
GI50 [21]: 3.27 µM
TGI [21]: > 100 µM
GI50 [22]: 3.89 µM
TGI [22]: > 100 µM
GI50 [23]: 8.16 µM
TGI [23]: > 100 µM
GI50 [24]: 8.67 µM
TGI [24]: 47.9 µM
GI50 [25]: 2.93 µM
TGI [25]: > 100 µM
GI50 [26]: 2.82 µM
TGI [26]: 10.3 µM
GI50 [27]: 4.64 µM
TGI [27]: > 100 µM
GI50 [28]: 6.24 µM
TGI [28]: > 100 µM
GI50 [29]: 4.64 µM
TGI [29]: > 100 µM
GI50 [30]: 6.22 µM
TGI [30]: 24.5 µM
GI50 [31]: 3.17 µM
TGI [31]: > 100 µM
GI50 [32]: 3.1 µM
TGI [32]: 19.1 µM
GI50 [33]: 6.63 µM
TGI [33]: > 100 µM
GI50 [34]: 18.6 µM
TGI [34]: 42.3 µM
GI50 [35]: 1.11 µM
TGI [35]: 4.77 µM
GI50 [36]: 2.57 µM
TGI [36]: 9.21 µM
GI50 [37]: 4.1 µM
TGI [37]: 25.4 µM
GI50 [38]: 3.08 µM
TGI [38]: > 100 µM
GI50 [39]: 2.92 µM
TGI [39]: > 100 µM
GI50 [40]: 26.3 µM
TGI [40]: > 100 µM
GI50 [41]: 2.04 µM
TGI [41]: > 100 µM
GI50 [42]: 4.34 µM
TGI [42]: > 100 µM
GI50 [43]: 2.97 µM
TGI [43]: 10.9 µM
GI50 [44]: 4.75 µM
TGI [44]: 54.1 µM
GI50 [45]: 0.378 µM
TGI [45]: > 100 µM
GI50 [46]: 5.06 µM
TGI [46]: > 100 µM
GI50 [47]: 4.43 µM
TGI [47]: > 100 µM
GI50 [48]: 5.44 µM
TGI [48]: 24 µM
GI50 [49]: 6.03 µM
TGI [49]: > 100 µM
GI50 [50]: 15.4 µM
TGI [50]: 93.3 µM
GI50 [59]: 2.88 µM
TGI [59]: > 100 µM
GI50 [51]: 5.5 µM
TGI [51]: > 100 µM
GI50 [52]: 1.39 µM
TGI [52]: 6.13 µM
GI50 [53]: 10.1 µM
TGI [53]: 36.9 µM
GI50 [54]: 7.08 µM
TGI [54]: 84.6 µM
GI50 [55]: 3.83 µM
TGI [55]: > 100 µM
GI50 [56]: 6.33 µM
TGI [56]: > 100 µM
GI50 [57]: 6.62 µM
TGI [57]: > 100 µM
GI50 [58]: 2.2 µM
TGI [58]: 6.28 µM
